# PubChem BioAssay AID743155 (The Scripps Research Institute Molecular Screening Center, 2013)
# Activity calls are given as the source filed them. No rule for the calls is given here.
# System: Jurkat cells cytotoxicity, ATP luminescence
# Experiment: cytotoxicity in Jurkat T cells, late-stage follow-up, cytotoxicity control for T. brucei MetRS inhibitor project, cell-based, luminescence, human T lymphocytes, Round001 (AID 743155)
row,SMILES,IC50
1,O=C(Cn1cc(C(=O)c2ccco2)c2ccccc21)Nc1cccc(C(F)(F)F)c1,74 µM (inactive)
2,O=C(Cn1cc(C(=O)COc2ccccc2)c2ccccc21)Nc1cccc(C(F)(F)F)c1,> 27.8 µM (inactive)
3,O=C(Cn1cc(C(=O)c2ccccc2)c2ccccc21)Nc1cccc(C(F)(F)F)c1,55.5 µM (inactive)
4,CNC(=S)N(CCc1ccccc1)C1CC(=O)N(c2ccc(Br)cc2)C1=O (centres undefined),> 27.8 µM (inactive)
5,CC(=O)N(CCc1ccccc1)C1CC(=O)N(c2ccc(Br)cc2)C1=O (centres undefined),> 27.8 µM (inactive)
6,Cc1ccc(C(=O)NCCc2nc3ccccc3[nH]2)cc1[N+](=O)[O-],> 27.8 µM (inactive)
7,COc1cccc(NC(=O)C2CC(=O)n3c(nc4ccccc43)N2)c1 (centres undefined),> 83.3 µM (inactive)
8,CCN(CC)C(=O)C(=O)c1cn(CC(=O)N(CC)c2ccccc2)c2ccccc12,> 27.8 µM (inactive)
9,COc1ccccc1NC(=O)Cn1cc(C(=O)C(=O)N2CCOCC2)c2ccccc21,> 83.3 µM (inactive)
10,COc1ccccc1NC(=O)CSc1nnc2c(n1)[nH]c1ccc(C)cc12,47.1 µM (inactive)
11,CCCCn1c(CCNC(=O)c2ccc(F)cc2)nc2ccccc21,> 27.8 µM (inactive)
12,O=C1CC(NCCc2ccccc2)C(=O)N1c1ccc(Br)cc1 (centres undefined),> 83.3 µM (inactive)
13,CCN(CC)C(=O)C(=O)c1cn(CC(=O)N2CCCc3ccccc32)c2ccccc12,> 83.3 µM (inactive)
14,COCCc1nc2ccc(C(=O)NCCc3nc4ccc(OC)cc4[nH]3)cc2o1,> 27.8 µM (inactive)
15,COc1ccc(CCN(C(=S)Nc2ccccc2)C2CC(=O)N(c3ccc(Cl)cc3)C2=O)cc1 (centres undefined),27.2 µM (inactive)
16,CCN(C(=O)Cn1cc(C(=O)C(=O)N2CCOCC2)c2ccccc21)c1ccccc1,> 83.3 µM (inactive)
17,O=C(Cn1cc(C(=O)C2CC2)c2ccccc21)Nc1cccc(C(F)(F)F)c1,> 27.8 µM (inactive)
18,CCc1ccc2c(c1)c1nnc(SCC(=O)Nc3ccc4c(c3)OCO4)nc1n2C,81.1 µM (inactive)
19,CCC(=O)c1cn(CC(=O)Nc2cccc(C(F)(F)F)c2)c2ccccc12,> 27.8 µM (inactive)
20,Cc1cccc(NC(=O)C2CC(=O)n3c(nc4ccccc43)N2)c1 (centres undefined),> 27.8 µM (inactive)
21,CCN(CCc1nc2ccc(C)cc2[nH]1)C(=O)c1ccc2ncccc2c1,> 83.3 µM (inactive)
22,Cc1ccc(CNC(=O)CSc2nnc3c(n2)[nH]c2ccc(C)cc23)cc1,> 27.8 µM (inactive)
23,O=C(NCCc1nc2ccccc2[nH]1)c1ccc(Cl)cc1,> 27.8 µM (inactive)
24,O=C(Nc1ccc(F)c(Cl)c1)C1CC(=O)n2c(nc3ccccc32)N1 (centres undefined),> 83.3 µM (inactive)
25,CCN(CC)C(=O)C(=O)c1cn(CC(=O)Nc2cccc(C(F)(F)F)c2)c2ccccc12,38 µM (inactive)

row,SMILES,IC50
1,CCN(CC)C(=O)C(=O)c1cn(CC(=O)Nc2ccccc2OC)c2ccccc12,> 83.3 µM (inactive)
2,CC(C)c1nc2ccc(C(=O)N(C)CCc3nc4ccc(F)cc4[nH]3)cc2o1,> 83.3 µM (inactive)
3,CCc1ccc2[nH]c3nc(SCC(=O)NCc4cccc(OC)c4)nnc3c2c1,> 27.8 µM (inactive)
4,Cc1cccc2[nH]c(CCN(C)C(=O)c3cccc(C4CCNC4)c3)nc12 (centres undefined),> 83.3 µM (inactive)
5,O=C(NCCc1nc2ccccc2[nH]1)c1ccc(Cl)c(Cl)c1,> 83.3 µM (inactive)
6,CC(=O)N(CCc1ccccc1)C1CC(=O)N(c2ccc(Cl)cc2)C1=O (centres undefined),> 27.8 µM (inactive)
7,Cc1cc2cc(C(=O)N3CCCC(c4nc5ccccc5[nH]4)C3)ccc2o1 (centres undefined),> 27.8 µM (inactive)
8,Cc1cccc2[nH]c(C3CCCN(C(=O)c4cccc5cccnc45)C3)nc12 (centres undefined),> 27.8 µM (inactive)
9,O=C(Cn1cc(C(=O)C(=O)N2CCOCC2)c2ccccc21)NCC1CCCO1 (centres undefined),> 83.3 µM (inactive)
10,O=C(NCCc1nc2ccccc2[nH]1)c1ccc(Cl)cc1Cl,> 27.8 µM (inactive)
11,O=C(Cn1cc(C(=O)C(=O)N2CCCC2)c2ccccc21)Nc1ccccc1,> 83.3 µM (inactive)
12,Cc1cccc(C(=O)NCCc2nc3ccccc3n2CCOc2ccccc2)c1,> 27.8 µM (inactive)
13,O=C(CSc1nnc2c(n1)[nH]c1ccc(Br)cc12)NCc1ccccc1,> 27.8 µM (inactive)
14,COc1ccc(NC(=O)CSc2nnc3c4cc(C)ccc4n(C)c3n2)cc1,> 83.3 µM (inactive)
15,CCN(CC)C(=O)C(=O)c1cn(CC(=O)Nc2cccc(OC)c2)c2ccccc12,> 27.8 µM (inactive)
16,COc1ccc(CCN(C(=O)c2cccc(F)c2)C2CC(=O)N(c3ccc(Br)cc3)C2=O)cc1 (centres undefined),> 83.3 µM (inactive)
17,CC(=O)c1cn(CC(=O)Nc2cccc(C(F)(F)F)c2)c2ccccc12,> 27.8 µM (inactive)
18,O=C(CSC1CC(=O)N(c2cccc(Cl)c2)C1=O)Nc1ccc(Br)cc1 (centres undefined),> 27.8 µM (inactive)
19,Cc1ccc2[nH]c3nc(SCC(=O)Nc4ccc(C(F)(F)F)cc4)nnc3c2c1,> 83.3 µM (inactive)
20,O=C(Cn1cc(C(=O)C(=O)N2CCOCC2)c2ccccc21)NCc1ccccc1,> 83.3 µM (inactive)
21,Cn1c(CCNC(=O)c2ccc(Cl)cc2)nc2ccccc21,> 27.8 µM (inactive)
22,O=C(NCCc1nc2ccccc2[nH]1)c1c(F)cccc1F,> 83.3 µM (inactive)
23,CC1Cc2ccccc2N1C(=O)Cn1cc(C(=O)C(=O)N2CCOCC2)c2ccccc21 (centres undefined),> 83.3 µM (inactive)
24,COc1ccc(NC(=O)C2CC(=O)n3c(nc4ccccc43)N2)cc1 (centres undefined),> 83.3 µM (inactive)
